Values of other authors, collected in US7713351B2, “Method for crystallization of proteins using polysaccharides” (Macrocrystal Oy, priority 2004, dated 2010).

Conditions: room temperature; CRC Handbook of Chemistry and Physics

Viscosity: 934 mPa s
SMILES: OCC(O)CO [glycerol]
